According to PMC10975611, “Heterocycles 52: The Drug-Likeness Analysis of Anti-Inflammatory Thiazolo[3,2-b][1,2,4]triazole and Imidazo[2,1-b][1,3,4]thiadiazole Derivatives” (Pharmaceuticals, 2024):

Legend:
[1] = Lipophilicity by reversed-phase thin-layer chromatography (RP-TLC), isopropanol-water mobile phase; type: physicochemical; conditions: for mRM (arithmetic mean of the experimental retention factors RM): RP-18F254s plates, isopropanol 70–90% in water; for RM0 (relative lipophilicity, RM extrapolated to pure water): Soczewinski Wachtmeister equation, isopropanol 70–90%; for PC1(RM): score of first principal component of RM values at isopropanol 70–90%; for b (slope): slope of RM versus isopropanol concentration; for φ0 (chromatographic hydrophobic index): φ0 = RM0/b; for lipophilicity (in words): chromatographic lipophilicity profile / lipophilicity descriptors
Protocol: Lipophilicity was assessed by RP-TLC, using RP-[…] standard silica gel plates (20 × 10 cm) as the stationary phase. An isopropanol:water binary mixture was used as the mobile phase, with different isopropanol concentrations 70%, 75%, 80%, 85%, 90% for thiazolo[3,2-b][1,2,4]triazole (1a–16a) and imidazo[2,1-b][1,3,4]thiadiazole (1b–16b) compounds.
The standard solutions (1 mg/mL) used to investigate the lipophilicity of the synthesized compounds were prepared in dichloromethane (1a–16a compounds) and dimethylsulfoxide (1b–16b compounds). From the obtained solutions, 2 µL was applied manually on the chromatographic plates, at 15 mm from the baseline and 5 mm from the edges of the plate at a spot distance of 12 mm. This procedure was repeated three times. The chromatographic plate upward elution was performed in a chromatographic chamber previously saturated for 30 min with mobile phase, at normal atmospheric pressure and room temperature. The migration distance of the eluent was 80 mm. The chromatographic plates were visually inspected under UV light at λ = 254 nm to identify the compounds. In order to minimize possible experimental errors, three measurements were performed for each mobile phase. The retention factors (Rf) were calculated as the average of three determinations in each case.
Based on the Rf values, a variety of parameters can be determined to estimate the lipophilicity of the compounds. The isocratic retention factor (RM) was determined using the Bate–Smith and Westall equation [34]:RM = log(1/Rf − 1) where Rf = x/y and x = the migration distance of the compound, and y = the migration distance of the solvent front.
There is usually a linear correlation between the RM values and the concentration of the organic component in the mobile phase. For a better estimation of lipophilicity, RM0 was determined as the extrapolated retention factor, considering pure water as the mobile phase (Soczewinski Wachtmeister equation):RM = RM0 + bC where b is the slope of the curve, which indicates the rate at which the solubility of the compound increases in the mobile phase, C is the concentration of the isopropanol in the mobile phase, and RM0 is the RM of the compound when the concentration of isopropanol is zero (extrapolated value).
To estimate the lipophilicity of the compounds, φ0, representing the chromatographic hydrophobicity index, was also determined. It corresponds to the percentage (by volume) of the organic component in the mobile phase and can be determined according to the following formula:φ0 = RM0/b
In order to assess the lipophilicity of compounds, other more relevant lipophilicity parameters have been used, such as the arithmetic mean of the experimental retention factors (mRM), and the score associated with the first principal component (PC1(RM)) obtained by applying principal component analysis (PCA) to the retention parameters RM [35, 36]. The determination of these parameters eliminates the errors that appear during the extrapolation procedure (when determining RM0) so that the results are more accurate.

[2] = parameters: method as in doi:10.31925/farmacia.2018.5.20, PMID 30248903; conditions: acute inflammation, compared to diclofenac; cited from earlier work
[3] = parameters: method as in doi:10.31925/farmacia.2018.5.20, PMID 30248903; conditions: in vivo; cited from earlier work

Compound	mRM (arithmetic mean of the experimental retention factors RM) [1]	RM0 (relative lipophilicity, RM extrapolated to pure water) [1]	PC1(RM) [1]	b (slope) [1]	φ0 (chromatographic hydrophobic index) [1]	lipophilicity (in words) [1]	in vivo anti-inflammatory activity [2]	pain threshold [3]
c1ccc(-c2nc3scc(-c4ccccc4)n3n2)cc1 [Compound 1a]	0.056	1.810	−0.309	−0.022	82.63		significantly reduced acute inflammation in vivo	increased pain threshold
c1ccc(-c2cn3nc(-c4ccccc4)sc3n2)cc1 [Compound 1b]	0.072	1.955	−0.365	−0.024	83.18		significantly reduced acute inflammation in vivo	increased pain threshold
Brc1ccc(-c2csc3nc(-c4ccccc4)nn23)cc1 [Compound 2a]	0.200	2.130	−0.821	−0.024	88.37	high lipophilicity		
Brc1ccc(-c2cn3nc(-c4ccccc4)sc3n2)cc1 [Compound 2b]	0.174	2.507	−0.730	−0.029	85.86	high lipophilicity		
FC(F)(F)c1ccc(-c2csc3nc(-c4ccccc4)nn23)cc1 [Compound 3a]	0.065	2.229	−0.341	−0.027	82.54			
FC(F)(F)c1ccc(-c2cn3nc(-c4ccccc4)sc3n2)cc1 [Compound 3b]	0.062	2.410	−0.331	−0.029	81.96			
Clc1ccc(-c2nc3scc(-c4ccccc4)n3n2)cc1 [Compound 5a]	0.178	2.131	−0.743	−0.024	87.32			
Clc1ccc(-c2nc3scc(-c4ccc(Br)cc4)n3n2)cc1 [Compound 6a]	0.324	2.582	−1.267	−0.028	91.57	the most lipophilic compounds		
Clc1ccc(-c2nn3cc(-c4ccc(Br)cc4)nc3s2)cc1 [Compound 6b]	0.239	2.454	−0.960	−0.028	87.94	the most lipophilic compounds		
FC(F)(F)c1ccc(-c2csc3nc(-c4ccc(Cl)cc4)nn23)cc1 [Compound 7a]	0.186	2.648	−0.775	−0.031	85.99			

The next lines start with results.

mRM (arithmetic mean of the experimental retention factors RM) [1]	RM0 (relative lipophilicity, RM extrapolated to pure water) [1]	PC1(RM) [1]	b (slope) [1]	φ0 (chromatographic hydrophobic index) [1]	lipophilicity (in words) [1]	Compound	in vivo anti-inflammatory activity [2]	pain threshold [3]
0.086	2.468	−0.414	−0.030	82.28		FC(F)(F)c1ccc(-c2cn3nc(-c4ccc(Cl)cc4)sc3n2)cc1 [Compound 7b]		
0.166	2.126	−0.701	−0.025	86.79		COc1ccc(-c2csc3nc(-c4ccc(Cl)cc4)nn23)cc1 [Compound 8a]		
0.148	2.183	−0.634	−0.026	84.92		COc1ccc(-c2cn3nc(-c4ccc(Cl)cc4)sc3n2)cc1 [Compound 8b]		
0.168	2.132	−0.711	−0.025	87.00	high lipophilicity	COc1ccc(-c2nc3scc(-c4ccc(Br)cc4)n3n2)cc1 [Compound 10a]		
0.222	1.990	−0.899	−0.022	90.04	high lipophilicity	COc1ccc(-c2nn3cc(-c4ccc(Br)cc4)nc3s2)cc1 [Compound 10b]		
0.032	2.217	−0.226	−0.027	81.22		COc1ccc(-c2nc3scc(-c4ccc(C(F)(F)F)cc4)n3n2)cc1 [Compound 11a]		
0.110	1.973	−0.498	−0.023	84.69		COc1ccc(-c2nn3cc(-c4ccc(C(F)(F)F)cc4)nc3s2)cc1 [Compound 11b]		
−0.435	1.309	1.448	−0.022	60.05		NS(=O)(=O)c1ccc(-c2nc3scc(-c4ccc(Br)cc4)n3n2)cc1 [Compound 14a]		
−0.416	1.399	1.382	−0.023	62.17		NS(=O)(=O)c1ccc(-c2nn3cc(-c4ccc(Br)cc4)nc3s2)cc1 [Compound 14b]		
−0.504	1.534	1.694	−0.026	60.16		NS(=O)(=O)c1ccc(-c2nc3scc(-c4ccc(C(F)(F)F)cc4)n3n2)cc1 [Compound 15a]		
−0.504	1.725	1.693	−0.028	62.28		NS(=O)(=O)c1ccc(-c2nn3cc(-c4ccc(C(F)(F)F)cc4)nc3s2)cc1 [Compound 15b]		
−0.529	0.864	1.788	−0.017	49.68		COc1ccc(-c2csc3nc(-c4ccc(S(N)(=O)=O)cc4)nn23)cc1 [Compound 16a]		
−0.511	0.938	1.723	−0.018	52.12		COc1ccc(-c2cn3nc(-c4ccc(S(N)(=O)=O)cc4)sc3n2)cc1 [Compound 16b]		
